Test results as given in ChEMBL document CHEMBL1201862, “PubChem BioAssay data set” (2004).
Calls of active or inactive are those of the source. Cut-off read from the data, not from the text of the source, for most assays here: actives have a measured EC50 and inactives only a lower limit.

Experiments:
[1] = target: T1, Heat shock factor protein 1 (Mus musculus, UniProt P38532); assay: enhancement of HSF1-driven luciferase signal – cell-based, NIH3T3, luminescence, dose retest, confirmation (AID 435004); format: functional;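 note: stress induced by proteasome inhibitor MG132 added 30 min after compound; luciferase reporter driven by HSF1 response element in NIH3T3 cells; actives raise luminescence as potentiators of the MG132 stress response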
T1 sequence (P38532 whole entry): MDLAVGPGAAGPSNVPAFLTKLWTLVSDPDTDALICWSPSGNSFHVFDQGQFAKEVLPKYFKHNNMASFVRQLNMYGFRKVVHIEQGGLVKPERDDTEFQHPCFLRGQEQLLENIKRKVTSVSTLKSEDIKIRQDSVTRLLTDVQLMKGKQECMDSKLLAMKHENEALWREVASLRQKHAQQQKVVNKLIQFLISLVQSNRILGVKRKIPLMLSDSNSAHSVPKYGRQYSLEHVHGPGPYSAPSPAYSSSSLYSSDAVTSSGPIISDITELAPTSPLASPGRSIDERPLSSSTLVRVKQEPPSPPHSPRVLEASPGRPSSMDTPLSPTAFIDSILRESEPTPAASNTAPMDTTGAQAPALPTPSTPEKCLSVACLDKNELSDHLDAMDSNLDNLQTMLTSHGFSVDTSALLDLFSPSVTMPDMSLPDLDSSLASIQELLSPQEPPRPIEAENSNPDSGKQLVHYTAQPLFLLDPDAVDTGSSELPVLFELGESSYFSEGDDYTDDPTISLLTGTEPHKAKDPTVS

[2] = microbe, parasite or virus in culture; format: functional; details: Mycobacterium tuberculosis
[3] = test system: INS1; assay: INS-1E survival protection against cytokine death – cell-based, luminescence, retest, dose response (AID 449756); format: functional; details: Rattus norvegicus;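 note: cell death triggered by IL-1 beta plus TNF-alpha plus IFN-gamma mixture; protective hits raise ATP signal compared with cytokine alone wells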
[4] = NIH-3T3 fibroblast cytotoxicity, dose response, cytotoxicity control, cell-based, fluorescence, Alamar Blue, secondary assay (AID 2327); format: functional;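 note: NIH-3T3 mouse fibroblasts cultured with fluconazole at 8 µg/mL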
[5] = target: T2, Rac GTPase-activating protein 1 (Homo sapiens, UniProt Q9H0H5); assay: blockers of MgcRacGAP-driven Rac1 GTP hydrolysis – biochemical, ADP Hunter fluorescence, primary and confirmatory, confirmation (AID 624330); format: functional
T2 sequence (Q9H0H5 whole entry): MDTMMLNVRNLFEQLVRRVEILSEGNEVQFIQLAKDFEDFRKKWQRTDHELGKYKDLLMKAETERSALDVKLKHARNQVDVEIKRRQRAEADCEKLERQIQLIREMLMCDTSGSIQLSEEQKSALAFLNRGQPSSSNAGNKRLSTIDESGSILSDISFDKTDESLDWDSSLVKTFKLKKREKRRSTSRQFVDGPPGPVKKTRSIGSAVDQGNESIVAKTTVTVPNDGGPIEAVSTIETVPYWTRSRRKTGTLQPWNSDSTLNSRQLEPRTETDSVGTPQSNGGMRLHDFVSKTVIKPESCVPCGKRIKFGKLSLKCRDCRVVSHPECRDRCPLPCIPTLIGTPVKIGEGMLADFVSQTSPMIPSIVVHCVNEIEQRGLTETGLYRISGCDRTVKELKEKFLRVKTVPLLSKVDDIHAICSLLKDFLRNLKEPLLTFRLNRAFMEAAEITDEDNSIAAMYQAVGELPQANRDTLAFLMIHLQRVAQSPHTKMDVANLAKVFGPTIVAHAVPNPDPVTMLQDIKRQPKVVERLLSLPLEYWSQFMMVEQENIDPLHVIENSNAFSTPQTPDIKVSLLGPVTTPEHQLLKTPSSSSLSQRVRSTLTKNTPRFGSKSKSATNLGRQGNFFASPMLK

[6] = fluconazole-exposed Candida albicans growth modulators – fluorescence, retest, confirmation (AID 2467); format: functional, cell-based
[7] = alpha-synuclein stem-loop luciferase translation blockers – H4 neuroglioma cells, luminescence, confirmation (AID 1988); format: functional, cell-based
[8] = Luminescence Cell-Based Dose Response HTS to Identify Inhibitors of 5'UTR Stem-Loop Driven Prion Protein mRNA Translation in H4 Neuroglioblastoma Cells. [Related pubchem assays: 1827 (Project Summary), 1813 (Primary HTS)]; format: functional
[9] = luciferase reporter signal suppression in cells – H4 neuroglioma cells, luminescence, dose response (AID 1990); format: functional, cell-based
[10] = viability of HCT116 lacking mutant beta-catenin – cell-based, human colon tumor, dose response (AID 1045); format: functional;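 note: HCT116 colon tumor cells with beta catenin knocked out; cells exposed to compound for 60 hours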
[11] = viability of PTEN-deleted HCT116 cells – cell-based, HCT116 PTEN knockout, dose response (AID 1047); format: functional;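 note: HCT116 colon tumor cells with PTEN knocked out; cells exposed to compound for 60 hours before readout; potency for loss of cell viability measured by luminescence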
[12] = test system: H4; assay: Luminescence Cell-Based Dose Response HTS to Identify Activators of 5'UTR Stem-Loop Driven Prion Protein mRNA Translation in H4 Neuroglioblastoma Cells. [Related pubchem assays: 1829 (Project Summary), 1814 (Primary HTS)]; format: functional; details: Homo sapiens
[13] = Luminescence Cell-Based Dose Confirmation HTS to Identify Activators of 5'UTR Stem-Loop Driven Alpha-Synuclein mRNA Translation in H4 Neuroglioblastoma Cells. [Related pubchem assays: 1829 (Project Summary), 1814 (Primary HTS)]; format: functional
[14] = Luminescence Cell-Based Dose Response HTS to Identify Activators of Luciferase Translation or Activity in H4 […] Cells. [Related pubchem assays: 1829 (Project Summary), 1814 (Primary HTS)]; format: functional
[15] = Luminescence Cell-Based Dose Retest to Confirm Inhibitors of Cancer Stem Cells. [Related pubchem assays (depositor defined):AID2717, AID2721]; format: functional; details: Homo sapiens

For `COCCCNc1nc2nonc2nc1N1CCN(Cc2cccc(C)c2)CC1`, the EC50 [1] was > 260 µM (inactive).
With `Cc1ccc(S(=O)(=O)N(CC(=O)NCc2ccco2)Cc2ccc(F)cc2)cc1` the EC50 [1] was > 260 µM (inactive).
In the case of `Cc1ccc(C(=O)c2cc(C)sc2NC(=O)CN2CCN(C(=O)c3ccco3)CC2)cc1`, the CC50 [2] was 23.4 µM (active).
In the case of `N=C(NOC(=O)c1cccc(Cn2cc(C(F)(F)F)ccc2=O)c1)c1ccccc1`, the AC50 [3] was 7.96 µM (active).
For `Nc1ccc(N2CCN(c3cccc(Cl)c3)CC2)cc1`, the EC50 [4] was > 150 µM (inactive), the IC50 [5] was 21 µM (active) and the EC50 [6] was > 38 µM (not active).
For `Cc1oc(-c2ccccc2F)nc1CS(=O)(=O)CC(=O)NCCCN1CCN(C)CC1`, the EC50 [1] was > 260 µM (inactive).
With `CC(OC(=O)c1oc2ccccc2c1COc1ccccc1)C(N)=O` (stereo unspecified) the EC50 [7] was 26.1 µM (active), the EC50 [4] was 19.8 µM (inconclusive) and the EC50 [8] was > 120 µM (not active). For the same molecule, the EC50 [9] was 26.7 µM (active) and the EC50 [6] was > 38 µM (not active).
For `CCN1CCN(CCCNC(=O)c2ccc(/C=C3/Oc4ccccc4N(Cc4cccc(C)c4)C3=O)cc2)CC1`, the EC50 [7] was 13.9 µM (active), the EC50 [8] was > 120 µM (not active) and the CC50 [2] was 5.99 µM (active). For the same molecule, the EC50 [9] was > 120 µM (not active).
With `Cc1cc(OCCCCCNCCO)cc(C)c1Cl` the EC50 [10] was 17.6 µM (active) and the EC50 [11] was 17.8 µM (active).
For `O=[N+]([O-])c1ccc(S(=O)(=O)N2CCSC2c2ccco2)cc1` (stereo unspecified), the EC50 [1] was > 260 µM (inactive).
With `CC(C)=CCC/C(C)=C/CC(C)(C)CNCCN1CCNCC1` the EC50 [12] was > 120 µM (not active), the EC50 [10] was 5.89 µM (active) and the EC50 [11] was 6.28 µM (active). For the same molecule, the EC50 [13] was > 120 µM (not active) and the EC50 [14] was > 120 µM (not active).
With `O=C(Nc1ccccc1O)C(c1ccccc1)c1ccccc1` the AC50 [3] was 2.92 µM (active).
For `c1ccc(COc2ccccc2CNC2CCCC2)cc1`, the EC50 [1] was > 260 µM (inactive).
In the case of `O=C(/C=C/c1ccncc1)c1ccc(NC(=O)c2ccccc2F)cc1`, the EC50 [10] was 0.813 µM (active), the AC50 [15] was 5.5 µM (active) and the EC50 [11] was 1.12 µM (active).
With `O=C(NN=C1c2ccccc2-c2ccccc21)c1cccc(Br)c1` the EC50 [10] was 4 µM (active), the EC50 [11] was 4.02 µM (active) and the CC50 [2] was 15.1 µM (active).
With `Cc1ccc(-n2nc(-c3ccco3)cc2C(=O)NCc2cccnc2)cc1` the EC50 [7] was > 120 µM (not active), the EC50 [8] was 38.1 µM (active) and the EC50 [9] was > 120 µM (not active).
